{
  "source": "paper PMC6759763",
  "about": "“Porphyromonas gingivalis Tyrosine Phosphatase Php1 Promotes Community Development and Pathogenicity” (mBio, 2019)",
  "key": {"FPtk1": {"target": "T1, FPtk1 (Porphyromonas gingivalis, UniProt B2RKZ8)", "T1 construct": "gene PGN_1524", "T1 sequence (B2RKZ8 entry or part of it)": "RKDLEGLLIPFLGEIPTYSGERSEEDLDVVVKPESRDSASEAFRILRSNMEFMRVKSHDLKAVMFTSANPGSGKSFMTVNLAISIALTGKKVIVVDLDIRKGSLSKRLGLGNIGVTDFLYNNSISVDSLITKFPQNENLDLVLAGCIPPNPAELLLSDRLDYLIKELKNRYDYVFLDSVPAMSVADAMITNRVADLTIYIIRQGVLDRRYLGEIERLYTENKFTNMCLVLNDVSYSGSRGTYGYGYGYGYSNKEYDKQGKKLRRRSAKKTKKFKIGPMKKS", "conditions": "5 mM ATP, 1 h; Php1 as phosphoacceptor"}, "Php1 [1]": {"target": "T2, Php1 (Porphyromonas gingivalis, UniProt B2RKZ9)", "T2 sequence (B2RKZ9 entry or part of it)": "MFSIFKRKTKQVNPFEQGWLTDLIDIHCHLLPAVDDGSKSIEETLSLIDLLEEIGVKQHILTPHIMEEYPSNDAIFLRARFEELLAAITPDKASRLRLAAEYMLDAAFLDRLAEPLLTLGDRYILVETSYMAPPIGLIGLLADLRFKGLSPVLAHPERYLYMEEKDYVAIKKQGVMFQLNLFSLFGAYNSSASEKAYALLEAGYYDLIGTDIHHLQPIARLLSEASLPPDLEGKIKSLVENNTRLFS", "design": "gene PGN_1525", "conditions": "50 mM pNPP, pH 8.0, 37 °C, 1 mM MnCl2; also inhibits with phosphotyrosine as substrate"}, "Ltp1": {"target": "T3, Ltp1 (Porphyromonas gingivalis, UniProt B2RI15)", "T3 construct": "gene PGN_0491", "T3 sequence (B2RI15 entry or part of it)": "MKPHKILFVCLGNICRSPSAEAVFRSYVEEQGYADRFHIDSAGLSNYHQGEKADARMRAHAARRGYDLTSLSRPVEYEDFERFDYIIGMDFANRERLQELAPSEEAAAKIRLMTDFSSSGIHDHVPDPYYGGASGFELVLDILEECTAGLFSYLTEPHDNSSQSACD", "test": "phosphatase inhibition, pNPP hydrolysis", "format": "biochemical", "conditions": "pNPP as substrate; DMSO vehicle"}, "Php1 [2]": {"target": "T2, Php1", "test": "p-nitrophenol release ([…] nm)", "format": "biochemical", "design": "gene PGN_1525; php1 coding region, GST-tagged (pGEX-4T-1) or His-tagged (pLATE51), E. coli BL21(DE3) Star; 247 residues, 28 kDa", "conditions": "50 mM pNPP, pH 8.0, 37 °C, 1 mM MnCl2"}, "Php1 [3]": {"target": "T2, Php1", "design": "gene PGN_1525", "conditions": "200 μM phosphotyrosine, pH 8.0, 37 °C, 1 mM MnCl2"}},
  "data": [
    {"smiles": "Nc1ncnc2c1ncn2[C@@H]1O[C@H](COP(=O)(O)OP(=O)(O)OP(=O)(O)O)[C@@H](O)[C@H]1O", "note": "[ATP]", "values": [
      {"measurement": "anti-phosphotyrosine immunoblot of Php1 phosphorylation", "setting": "FPtk1", "value": "Tyrosine phosphorylation of Php1 increased after incubation with FPtk1 in the presence of ATP"}
    ]},
    {"smiles": "[O]=[V]([OH])([OH])[OH]", "note": "[Na3VO4, sodium orthovanadate]", "values": [
      {"measurement": "inhibition", "setting": "Php1 [1]", "value": "(pNPP) was inhibited by the tyrosine phosphatase inhibitor Na3VO4"}
    ]},
    {"smiles": "Nc1ccc(C(=O)O)cc1", "note": "[pABA, para-amino benzoic acid]", "values": [
      {"measurement": "% activity relative to no inhibitor", "setting": "Ltp1", "value": "Both H2O2 and pABA inhibited Ltp1 but not Php1"}
    ]},
    {"smiles": "O=[N+]([O-])c1ccc(OP(=O)(O)O)cc1", "note": "[pNPP, p-nitrophenyl phosphate]", "values": [
      {"measurement": "p-nitrophenol release (405 nm)", "setting": "Php1 [2]", "value": "Php1 phosphatase activity on p-nitrophenyl phosphate (pNPP)"}
    ]},
    {"smiles": "N[C@@H](Cc1ccc(OP(=O)(O)O)cc1)C(=O)O", "note": "[phosphotyrosine]", "values": [
      {"measurement": "malachite green phosphate release", "setting": "Php1 [3]", "value": "Php1 was most active against phosphotyrosine"}
    ]}
  ]
}
